Values quoted from earlier work, collected in article PMC7904743, “WIDOCK: a reactive docking protocol for virtual screening of covalent inhibitors” (Journal of Computer-Aided Molecular Design, 2021).
Read-outs that look alike come from different tables or passages of the source.

Experiments:
OTUB2 = details: experimental actives if % labeling higher than 50%, cited from earlier work
NUDT7 = details: protein labeling at 200 μM; experimental actives if % labeling higher than 50%; cited from earlier work
[1] = thiol reactivity, cited from earlier work
[2] = natural log of average rate constant k
[3] = natural logarithm of average rate constant
[4] = natural log of average kinetic rate constant
[5] = natural log of average rate constant

SMILES | OTUB2 % labeling (OTUB2) [%] | NUDT7 % labeling (NUDT7) [%] | ln(avg k) [1, 2] | ln(avg k) [1, 3] | OTUB2 % labeling (OTUB2; OTUB2 protein labeling) [%] | ln(avg k) [1, 4] | ln(avg k) [1, 5]
O=C(CCl)NCc1ccc(F)cc1 [PCM-0102192, O=C(CCl)NCc1ccc(F)cc1] | 31 | 0 | -16.677 | -16.677 | – | – | –
O=C(CCl)N1CCSc2ccccc21 [PCM-0102415, O=C(CCl)N1CCSc2ccccc21] | 16 | 10 | -15.511 | -15.511 | – | – | –
CC(=O)NNC(=O)CCl [PCM-0102310, CC(=O)NNC(=O)CCl] | 18 | 0 | -16.812 | -16.812 | – | – | –
O=C(CCl)Nc1ccc2c(c1)OCCCO2 [PCM-0102409, O=C(CCl)Nc1ccc2c(c1)OCCCO2] | 23 | 10 | -15.744 | -15.744 | – | – | –
CC(=O)N1CCN(C(=O)CCl)CC1 [PCM-0102535, CC(=O)N1CCN(C(=O)CCl)CC1] | 0 | 6 | -15.085 | -15.085 | – | – | –
CC(C)c1cccc(NC(=O)CCl)c1 [PCM-0102429, CC(C)c1cccc(NC(=O)CCl)c1] | 23 | 10 | -15.994 | -15.994 | – | – | –
Cc1ccc(CNC(=O)CCl)cc1F [PCM-0102959, Cc1ccc(CNC(=O)CCl)cc1F] | – | 0 | – | – | 50 | -16.344 | -16.344
COc1ccc(Cl)cc1C(=O)NNC(=O)CCl [PCM-0102763, COc1ccc(Cl)cc1C(=O)NNC(=O)CCl] | – | 10 | – | – | 64 | -16.746 | -16.746
O=C(CCl)Nc1cccc(C(F)(F)F)c1 [PCM-0102290, O=C(CCl)Nc1cccc(C(F)(F)F)c1] | 26 | 12 | -15.516 | -15.516 | – | – | –
N#Cc1c(NC(=O)CCl)sc2c1CCCCC2 [PCM-0102286, N#Cc1c(NC(=O)CCl)sc2c1CCCCC2] | 0 | 33 | -16.020 | -16.020 | – | – | –
Cc1nn(-c2ccccc2)c(C)c1NC(=O)CCl [PCM-0102501, Cc1nn(-c2ccccc2)c(C)c1NC(=O)CCl] | 9 | 9 | -16.489 | -16.489 | – | – | –
O=C(CCl)NCC12CC3CC(CC(C3)C1)C2 [PCM-0102706, O=C(CCl)NCC12CC3CC(CC(C3)C1)C2] | 65 | 0 | – | -16.508 | – | – | -16.508
COc1ccc(C2=CCN(C(=O)CCl)CC2)cc1 [PCM-0102929, COc1ccc(C2=CCN(C(=O)CCl)CC2)cc1] | – | 45 | – | – | 0 | -16.042 | -16.042
O=C(CCl)N1CCCCCC1 [PCM-0102751, O=C(CCl)N1CCCCCC1] | – | 0 | – | – | 0 | -16.327 | -16.327
O=C(CCl)Nc1cccc2ncccc12 [PCM-0102097, O=C(CCl)Nc1cccc2ncccc12] | 42 | 0 | -16.130 | -16.130 | – | – | –
O=C(CCl)NNC(=O)c1ccc([N+](=O)[O-])cc1 [PCM-0102885, O=C(CCl)NNC(=O)c1ccc([N+](=O)[O-])cc1] | – | 0 | – | – | 21 | -16.970 | -16.970
CCc1cc(C(=O)NNC(=O)CCl)sc1C [PCM-0102300, CCc1cc(C(=O)NNC(=O)CCl)sc1C] | 83 | 11 | -17.034 | -17.034 | – | – | –

SMILES | OTUB2 % labeling (OTUB2) [%] | NUDT7 % labeling (NUDT7) [%] | ln(avg k) [1, 2] | ln(avg k) [1, 3] | OTUB2 % labeling (OTUB2; OTUB2 protein labeling) [%] | ln(avg k) [1, 4] | ln(avg k) [1, 5]
Cc1cc(CNC(=O)CCl)cc(C)c1O [PCM-0102431, Cc1cc(CNC(=O)CCl)cc(C)c1O] | 64 | 0 | -16.592 | -16.592 | – | – | –
O=C(CCl)N1CCN(Cc2cccs2)CC1 [PCM-0102243, O=C(CCl)N1CCN(Cc2cccs2)CC1] | 0 | 8 | -15.851 | -15.851 | – | – | –
CN(Cc1ccc(Br)cc1)C(=O)CCl [PCM-0102401, CN(Cc1ccc(Br)cc1)C(=O)CCl] | 0 | 58 | -15.733 | -15.733 | – | – | –
O=C(CCl)Nc1ccc(Cl)cc1 [PCM-0102120, O=C(CCl)Nc1ccc(Cl)cc1] | 23 | 18 | -15.805 | -15.805 | – | – | –
O=C(CCl)N1N=C(c2ccco2)CC1c1ccsc1 (stereo not shown) [PCM-0102659, O=C(CCl)N1N=C(c2ccco2)CC1c1ccsc1] | 0 | 39 | -14.828 | -14.828 | – | – | –
O=C(CCl)N1CCN(c2cccc(C(F)(F)F)c2)CC1 [PCM-0102239, O=C(CCl)N1CCN(c2cccc(C(F)(F)F)c2)CC1] | 0 | 8 | -15.673 | -15.673 | – | – | –
O=C(CCl)Nc1nc(-c2c[nH]c3ccccc23)cs1 [PCM-0102233, O=C(CCl)Nc1nc(-c2c[nH]c3ccccc23)cs1] | 25 | 26 | -15.707 | -15.707 | – | – | –
CNC(=O)CNC(=O)CCl [PCM-0102279, CNC(=O)CNC(=O)CCl] | 10 | 0 | -16.473 | -16.473 | – | – | –
O=C(CCl)N1CCN(S(=O)(=O)c2ccccc2)CC1 [PCM-0102468, O=C(CCl)N1CCN(S(=O)(=O)c2ccccc2)CC1] | 8 | 0 | -15.364 | -15.364 | – | – | –
Cc1ccc(NC(=O)CCl)cc1S(N)(=O)=O [PCM-0102177, Cc1ccc(NC(=O)CCl)cc1S(N)(=O)=O] | 27 | 10 | -15.256 | -15.256 | – | – | –
CC(=O)c1sc(NC(=O)CCl)nc1C [PCM-0102838, CC(=O)c1sc(NC(=O)CCl)nc1C] | – | 12 | – | – | 0 | -16.064 | -16.064
CNC(=O)c1ccc(NC(=O)CCl)cc1 [PCM-0102267, CNC(=O)c1ccc(NC(=O)CCl)cc1] | 0 | 0 | -15.048 | -15.048 | – | – | –
Cc1ccc(NC(=O)CCl)cc1C [PCM-0102339, Cc1ccc(NC(=O)CCl)cc1C] | 82 | 18 | -15.536 | -15.536 | – | – | –
O=C(CCl)Nc1cc2c(cc1Br)OCCO2 [PCM-0102299, O=C(CCl)Nc1cc2c(cc1Br)OCCO2] | 67 | 27 | -16.302 | -16.302 | – | – | –
O=C(CCl)NC(=O)Nc1ccc2c(c1)OCCO2 [PCM-0102614, O=C(CCl)NC(=O)Nc1ccc2c(c1)OCCO2] | 27 | 23 | -16.380 | -16.380 | – | – | –
NC(=O)C1CCCCN1C(=O)CCl (stereo not shown) [PCM-0102203, NC(=O)C1CCCCN1C(=O)CCl] | 0 | 0 | -15.988 | -15.988 | – | – | –
O=C(CCl)Nc1ccc(OC(F)(F)F)cc1 [PCM-0102276, O=C(CCl)Nc1ccc(OC(F)(F)F)cc1] | 36 | 24 | -15.893 | -15.893 | – | – | –
